What was measured:
Format in all cases: cell-based
[1] = tested on: human aortic endothelial cells; test: Vascular endothelial cell migration (48 well micro chemotaxis chamber); details: for Number of Migration cell: 4 hours, mean ± SE, control 34 ± 8
Experimental: The test was conducted according to a report by Witzenbichler, B. et al. (J. Biol. Chem., 273, 18514-18521, 1998). Briefly, human aortic endothelial cells (Cambrex Corp.) were cultured in MCDB131 medium to confluent state. Cell migration was tested by using a 48 well micro chemotaxis chamber (Neuro Probe Inc.). The Test Compound A was added into the lower layer of a well, while cells, 1×10^4 cells per well, were added into the upper layer, and those were cultured for 4 hours. Cells were immobilized with methanol and cells in the upper layer of a filter were removed, and cells migrated on the filter were stained with Diff Quick (International Reagents Corp.), then numbers of migrated endothelial cells observed from digital camera image were counted by using Scion Image (Scion Corp.). The statistical analysis was performed as follows: Data were analyzed using Williams' test after linear regression analysis. The difference between test compound groups and non-treated group were considered statistical significant at P<0.05.

[2] = tested on: human aortic endothelial cells; test: Luminalization (tube formation) of vascular endothelial cells in gel; details: for Length of formed tube (Pixel): third day, mean ± SE, control 13.3 ± 0.4
Experimental: The test was conducted according to a report by Yasunaga, C. et al. (Lab Invest, 1989; 61: 698-704). Briefly, human aortic endothelial cells (Cambrex Corp.) were cultured in MCDB131 medium to confluent state. Cells prepared with medium containing the Test Compound A, 5×10^4 cells/well, were added on cell matrix gel (Nitta Gelatin Co.) and cultured for 4 hours to adhere cells. After medium removal, gel was added to embed cells, and medium containing the drug was added on the upper layer, then length of the formed tube was measured on the third day based on digital camera image by using Scion Image (Scion Corp.). The statistical analysis was performed as follows: Data were analyzed using Williams' test after linear regression analysis. The difference between test compound groups and non-treated group were considered statistical significant at P<0.05.

[3] = tested on: thoracic aortic ring specimens of rat; test: Rat aortic ring culture: angiogenesis promoting action (newly grown micro-vessels); details: for Number of micro-vessels: 7 days culture, mean ± SE, control 20 ± 2
Experimental: The test was conducted according to a report by Nicosia R. F. et al. (In Vitro Cell Dev Biol 26, 119-128, 1990). Briefly, thoracic aorta was removed from rat under ether anesthesia, and aortic rings were obtained by cross-sectioning at 1 mm intervals. The aortic rings were embedded into type I collagen gel (Koken Co.). Further, MCDB131 medium (Gibco BRL Co.) containing the Test Compound A was added to the upper layer, and the medium was exchanged every three days. After 7 days from the culture, micro-vessels newly grown from a cutting section of the aortic ring specimens were stained with alkaline phosphatase, then numbers of micro-vessels observed based on digital camera image were counted by using Scion Image (Scion Corp.). The statistical analysis was performed as follows: Data were analyzed using Dunnett's test with randamized block design. The difference between test compound groups and non-treated group were considered statistical significant at P<0.05.

[4] = dose dependent manner, compared with non-treated control group

Q: How did the “Number of Migration cell” value ([1]; Concentration 8 (−Log M)) turn out when `CCC(=O)Nc1c(C)cc(C(=O)N2CCC(N(C)CCc3ccccc3)CC2)cc1C` [Test Compound A, 4-[N-methyl-N-(2-phenylethyl)amino]-1-(3,5-dimethyl-4-propionylaminobenzoyl)piperidine] was run?
A: 64 ± 7

Q: What about the “Number of Migration cell” value ([1]; Concentration 9 (−Log M)) of the same compound?
A: 64 ± 8

Q: What about the “Number of Migration cell” value ([1]; Concentration 10 (−Log M)) of the same compound?
A: 49 ± 6

Q: And the “Number of Migration cell” value ([1]; Concentration 11 (−Log M))?
A: 42 ± 6

Q: And the “Number of Migration cell” value ([1]; Concentration 12 (−Log M))?
A: 41 ± 8

Q: What about the “Effect on numbers of migration cells (in words)” value [1, 4] of the same compound?
A: significantly increased numbers of migration cells

Q: What about the “Length of formed tube (Pixel)” value ([2]; Concentration 6 (−Log M)) of the same compound?
A: 48.4 ± 5.3 Pixel

Q: What about the “Length of formed tube (Pixel)” value ([2]; Concentration 7 (−Log M)) of the same compound?
A: 32.2 ± 3.8 Pixel

Q: What about the “Length of formed tube (Pixel)” value ([2]; Concentration 8 (−Log M)) of the same compound?
A: 15.7 ± 0.9 Pixel

Q: What about the “Effect on length of formed tube (in words)” value [2, 4] of the same compound?
A: significantly increased length of formed tube

Q: And the Number of micro-vessels ([3]; Concentration 6 (−Log M))?
A: 35 ± 4

Q: What about the Number of micro-vessels ([3]; Concentration 7 (−Log M)) of the same compound?
A: 33 ± 3

Q: And the Number of micro-vessels ([3]; Concentration 8 (−Log M))?
A: 32 ± 4

Q: What about the Number of micro-vessels ([3]; Concentration 9 (−Log M)) of the same compound?
A: 27 ± 2

Q: And the Number of micro-vessels ([3]; Concentration 10 (−Log M))?
A: 30 ± 3

Q: And the Number of micro-vessels ([3]; Concentration 11 (−Log M))?
A: 22 ± 3

Q: And the Number of micro-vessels ([3]; Concentration 12 (−Log M))?
A: 24 ± 3

Q: What about the “Effect on numbers of newly grown micro-vessels (in words)” value [3, 4] of the same compound?
A: significantly increased numbers of newly grown micro-vessels
